Test results as given in patent US20220218614A1, “IONIZABLE CATIONIC LIPIDS AND LIPID NANOPARTICLES, AND METHODS OF SYNTHESIS AND USE THEREOF” (Tidal Therapeutics, Inc., priority 2020, published 2022).
“Also recorded” adds a separate entry of the source.

Key:
[1] = Zeta potential of LNPs by laser Doppler electrophoresis in 5 mM pH 5.5 MES and 5 mM pH 7.4 HEPES buffer; format: physicochemical; settings: pH 5.5 MES and pH 7.4 HEPES buffer
Description: (§1) Samples of the LNPs produced in Example 2 were characterized to determine the average hydrodynamic diameter, zeta potential, and mRNA content (total and dye-accessible). The hydrodynamic diameter was determined by dynamic light scattering (DLS) using a Zetasizer model ZEN3600 (Malvern Pananalytical, UK). The zeta potential was measured in 5 mM pH 5.5 MES buffer and 5 mM pH 7.4 HEPES buffer by laser Doppler electrophoresis using the Zetasizer.

[2] = Freeze thaw stability of LNP formulations (storage at 4° C., −80° C. or flash frozen in liquid nitrogen; DLS); format: physicochemical; settings: one freeze thaw cycle, relative to 4 C storage
Description: Following the preparation of the targeted LNP formulation, the formulation was split into two portions. One portion was exchanged into 40 mM pH 7.4 HEPES buffer, and the other portion was exchanged into 30 mM pH 7.4 Tris buffer. The buffer exchange was performed using a discontinuous diafiltration method where the LNP formulation sample was transferred into a centrifugal ultrafiltration device with […] MWCO regenerated cellulose membrane (Amicon Ultra-4, MilliporeSigma, Massachusetts, US), then diluted 10-fold with the exchange buffer, and concentrated back to the original volume by centrifuging at 500 rcf. This dilution and concentration step was repeated one additional time. The exchanged LNP samples were then divided into separate aliquots that were mixed with concentrated sodium chloride and sucrose solutions to provide the final freeze-thaw sample formulations. Samples of each freeze-thaw formulation were then stored at 4° C., frozen at −80° C., or flash frozen in liquid nitrogen. The samples were later thawed at room temperature and tested for size by DLS and in vitro T cell transfection.

[3] = tested on: primary human T-cells (CD3+ T cells); assay: In vitro LNP transfection of primary human T-cells (GFP, Cy5 or DiI, viability by FACS); format: cell-based
Excerpt: This example describes the protocol used for in vitro LNP transfections in primary human T-cells. This method is used to assess LNP in vitro efficacy in relevant target cells (CD3+ T cells) by first transfecting the cells using LNPs loaded with mRNA encoding for a reporter gene, such as GFP mRNA, and then assessing transfection by measuring reporter gene expression by fluorescence-[…] cell sorting (FACS). Additionally, particle association with cells may be observed by in the same assay by labeling individual nanoparticle components, such as the mRNA, with a fluorescent dye, such as Cy5, and then observing cell/dye association by FACS.
CD3+ T cells were isolated from frozen peripheral blood mononuclear cells using an EasySep Human T Cell Isolation Kit on a RoboSep automated cell isolation system from […]. T cells were plated into a flat bottom 96-well plate in RPMI cell culture media supplemented with glutamax, 10% fetal bovine serum, and 40 ng/mL IL2. 100 μL of cell suspension was seeded per well at a density of 1M T cells/mL (100K T cells/well). Cells were allowed to rest for two hours in a 37° C. incubator, and then were transfected by gently adding 10 μL of a 22 μg/mL (by mRNA) nanoparticle suspension, resulting in a final mRNA concentration of 2 μg/mL. Cells were gently mixed with a pipette and then incubated for 24 hours in a 37° C. incubator. After incubation the cells were analyzed using an ThermoFisher Attune NXT flow cytometer. Cy5 was detected using a 638 nm laser with 670/14 nm filter. eGFP was detected using a 488 nm laser and a 530/30 nm filter. Data were analyzed using FlowJo software from BD biosciences. FACS data were first gated to exclude doublets and dead cells and then gated for GFP and Cy5. Gates for GFP+ and Cy5+were set such that a control sample (PBS treated T cells) was <0.1% positive.
CD3+ T cells were isolated from frozen peripheral blood mononuclear cells using an EasySep Human T Cell Isolation Kit on a RoboSep automated cell isolation system from […]. T cells were plated into a round bottom 96-well plate in RPMI cell culture media supplemented with glutamax, 10% fetal bovine serum, pen-strep, and 40 ng/mL IL-2. 100 μL of cell suspension was seeded per well at a density of 1M T cells/mL (100K T cells/well). Cells were allowed to rest for two hours in a 37° C. incubator, and then were transfected by gently adding 10 μL of a 22 μg/mL (by mRNA) nanoparticle suspension, resulting in a final mRNA concentration of 2 μg/mL (unless otherwise noted). Cells were gently mixed with a pipette and then incubated for 24 hours in a 37° C. incubator. After incubation the cells were diluted with FACS buffer (BD 554657) and analyzed using a BD Fortessa flow cytometer. Data were analyzed using FlowJo software from BD biosciences.

[4] = Hydrodynamic diameter and polydispersity of LNPs by dynamic light scattering (DLS), Zetasizer; format: physicochemical; settings: insertion of anti-CD3 hSP34-PEG2k-DSPE conjugate
Description: as §1

[5] = Quant-iT RiboGreen RNA assay: dye accessible and total (Triton) mRNA content, encapsulation; format: physicochemical; settings: Table 9: Lipid 2 and Lipid 6 LNP
Description: RNA content of the nanoparticles is measured using Thermo Fisher Quant-iT RiboGreen RNA Assay Kit. Dye accessible RNA, which includes both non-incorporated RNA and RNA that is near the surface of the nanoparticle, is measured by diluting the nanoparticles to approximately 1 μg/mL mRNA using HEPES buffered saline, and then adding Quant-iT reagent to the mixture. Total RNA content is measured by diluting the particles to 1 μg/mL mRNA using HEPES buffered saline, disrupting the nanoparticles by heating them to 60° C. for 30 minutes in HEPES buffered saline containing 0.5% Triton, and then adding Quant-It reagent. RNA is quantified by measuring fluorescence at 485/535 nm, and concentration is determined relative to a contemporaneously run RNA standard curve.

[6] = Apparent pKa of LNPs by TNS fluorescent probe; format: physicochemical; settings: LNP made with the named ionizable lipid; pH at 50% of maximum TNS fluorescence
Excerpt: This example describes the fluorescent dye based method used for measurement of the apparent pKa of the lipid nanoparticles. Apparent pKa determines the nanoparticle surface charge under physiological pH conditions, typically a pKa value in the endosomal pH range (6-7.4) results in LNPs that are neutral or slightly charged at plasma or the extracellular space (pH 7.4) and become strongly positive under acidic endosomal environments. This positive surface charge drives fusion of the LNP surface with negatively charged endosomal membranes resulting in destabilization and rupture of the endosomal compartment and LNP escape into the cytosolic compartment, a critical step in cytosolic delivery of mRNA and protein expression via engagement of the cells ribosomal machinery.
The apparent pKa of LNPs made using ionizable Lipids 2, 5 (synthesized as described in example 1), 6 and 7 (synthesized using method analogous to Lipid 2, 5, respectively, except using diethyl amine instead of dimethyl amine to incorporate the tertiary amine head group) were determined by 6-(p-Toluidino)-2-naphthalenesulfonic acid (TNS) fluorescence measurement in aqueous buffers covering a range of pH values (pH 4-pH 10). TNS is non-fluorescent when free in solution, but which fluoresces strongly when associated with a positively charged lipid nanoparticle. At a pH values below the pKa of the nanoparticle, positive LNP surface charge results in dye recruitment at the particle interface resulting in TNS fluorescence. At pH values above the LNP pKa no fluorescence is observed. The apparent pKa of the LNP is reported as the pH at which the fluorescence is at 50% of its maximum, as determined using a four-point logistic curve fit.

human CD8 T cells = assay: Transfection of human CD8 T cells with Fab-targeted Cy5/GFP mRNA LNPs; format: cell-based; settings: Lipid 8 LNP, Cy5/GFP mRNA approximately 2.5 μg/mL, approximately 24 hr, Fab conjugate post-inserted
Description: LNPs were prepared using the mixing process described in Example 6, the buffer exchange process described in Example 21. hSP34 and TRX2 Fab-lipid conjugates generated from methods described in Example 4 and a non-T cell specific anti-HER2 lipid-conjugate (Nellis D F, Ekstrom D L, Kirpotin D B, Zhu J, Andersson R, Broadt T L, Ouellette T F, Perkins S C, Roach J M, Drummond D C, Hong K, Marks J D, Park J W and Giardina S L (2005) Preclinical manufacture of an anti-HER2 scFv-PEG-DSPE, liposome-inserting conjugate. 1. Gram-scale production and purification. Biotechnol Prog 21:205-220) were post-inserted at various densities (SP34 0.6-17 g/mol; TRX2 3-9 g/mol; anti-HER2 17 g/mol) into LNPs containing Lipid 8, Cy5 labeled GFP mRNA and GFP mRNA (1:9 Cy5:GFP mass ratio) by adding conjugate and LNPs together and heating the solution without mixing in a thermal cycler at 60 C for 60 min and cooled to 4° C. for 3-5 min. […] After transfection, LNP binding efficiency (Cy5) and transfection efficiency (GFP) was evaluated by flow cytometry. Supernatants were measured for human IFNγ concentration using a commercially available ELISA kit under manufacturers recommended conditions (R&D Systems Duoset). […]

[7] = theoretical total mRNA 45 μg/mL

## CCCCC/C=C\C/C=C\CCCCCCCC(=O)OC[C@H](COC(=O)CCCN(CC)CC)OC(=O)CCCCCCC/C=C\C/C=C\CCCCC [Lipid 6]
[1]
  LNP surface charge (zeta potential), in words: greater positive surface charge relative to Lipid 12 and 13
[2]
  LNP size and polydispersity after freeze-thaw, in words: minor changes in particle size distributions after frozen storage at −80 C
[3]; after one freeze thaw cycle, relative to 4 C storage
  T-cell transfection and cell association after freeze-thaw, in words: retained function after being subjected to freeze-thaw stress
[3]; hSP34 targeted LNP with GFP mRNA, 24 hours
  GFP protein expression (% GFP+ cells, GFP MFI), in words: Dose dependent expression of GFP protein
[3]; hSP34 targeted LNP, 24 hours
  LNP association with cells (% Cy5+/Cy5 MFI or % DiI+/DiI MFI), in words: equally associated with cells
[3]; hSP34 targeted LNP, 24 hours, dose as in the value
  T-cell viability / tolerability, in words: well tolerated by T-cells at all LNP doses tested; also recorded: moderately higher viability at higher dose of 2 μg/mL
[4]
  change in particle size and PDI upon conjugate insertion: significantly greater size distribution changes compared to Lipid 12 and Lipid 13 LNPs; also recorded: moderate changes in particle size and PDI
[5]
  % Dye Accessible mRNA: 15%
[5]; [7]
  Measured total (Triton method) mRNA: 40 µg/mL
  Ribogreen Dye Accessible mRNA: 6 µg/mL
[6]
  apparent pKa of LNP (TNS): ~7

## Hu291: anti-CD3 Fab, SEQ ID NO: 4 and 5
Human CD8 T cells
  transfection (% GFP+, GFP MFI) and binding (% Cy5+, Cy5 MFI), in words: high levels of % Cy5+ T cells
